Measurements as given in ChEMBL document CHEMBL2380196, “New anticancer active and selective phenylene-bisbenzothiazoles: synthesis, antiproliferative evaluation and DNA binding” (Eur J Med Chem, 2013).
The source made the active and inactive calls. No cut-off for these calls is given here.

Key:
[1] = tested on: DNA; assay: Binding affinity to calf thymus DNA at 50 uM by Circular dichroism spectra analysis; format: nucleic-acid assay; details: Bos taurus
[2] = tested on: DNA; assay: Binding affinity to calf thymus DNA assessed as hypochromic effect at 20 uM by UV/Vis spectra analysis; format: nucleic-acid assay; details: Bos taurus
[3] = tested on: MIA PaCa-2; assay: Induction of apoptosis in human MIAPaCa2 cells at 10 uM after 24 hrs using propidium iodide/Annexin-V staining by flow cytometry relative to control; format: functional
[4] = tested on: HeLa; assay: Cell cycle arrest in human HeLa cells assessed as accumulation in G2/M phase at 10 uM after 48 hrs using propidium iodide staining by flow cytometry relative to control; format: functional
[5] = tested on: HeLa; assay: Cell cycle arrest in human HeLa cells assessed as accumulation in G2/M phase at 5 uM after 48 hrs using propidium iodide staining by flow cytometry relative to control; format: functional
[6] = tested on: HeLa; assay: Cell cycle arrest in human HeLa cells assessed as accumulation in G1 phase at 10 uM after 24 hrs using propidium iodide staining by flow cytometry relative to control; format: functional
[7] = tested on: HeLa; assay: Cell cycle arrest in human HeLa cells assessed as accumulation in sub-G1 phase at 10 uM after 24 hrs using propidium iodide staining by flow cytometry relative to control; format: functional
[8] = tested on: HeLa; assay: Cell cycle arrest in human HeLa cells assessed as accumulation in G1 phase at 5 uM after 24 hrs using propidium iodide staining by flow cytometry relative to control; format: functional
[9] = tested on: HeLa; assay: Cell cycle arrest in human HeLa cells assessed as accumulation in sub-G1 phase at 5 uM after 24 hrs using propidium iodide staining by flow cytometry relative to control; format: functional
[10] = tested on: MIA PaCa-2; assay: Cell cycle arrest in human MIAPaCa2 cells assessed as accumulation in G2/M phase at 10 uM after 48 hrs using propidium iodide staining by flow cytometry relative to control; format: functional
[11] = tested on: MIA PaCa-2; assay: Cell cycle arrest in human MIAPaCa2 cells assessed as accumulation in sub-G1 phase at 10 uM after 48 hrs using propidium iodide staining by flow cytometry relative to control; format: functional
[12] = tested on: MIA PaCa-2; assay: Cell cycle arrest in human MIAPaCa2 cells assessed as accumulation in G1 phase at 10 uM after 24 hrs using propidium iodide staining by flow cytometry relative to control; format: functional
[13] = tested on: MIA PaCa-2; assay: Cell cycle arrest in human MIAPaCa2 cells assessed as accumulation in G2/M phase at 5 uM after 24 hrs using propidium iodide staining by flow cytometry relative to control; format: functional
[14] = tested on: MIA PaCa-2; assay: Cell cycle arrest in human MIAPaCa2 cells assessed as accumulation in G1 phase at 5 uM after 24 hrs using propidium iodide staining by flow cytometry relative to control; format: functional
[15] = tested on: SK-BR-3; assay: Cell cycle arrest in human SKBR3 cells assessed as accumulation in G2/M phase at 10 uM after 48 hrs using propidium iodide staining by flow cytometry relative to control; format: functional
[16] = tested on: SK-BR-3; assay: Cell cycle arrest in human SKBR3 cells assessed as accumulation in S phase at 10 uM after 48 hrs using propidium iodide staining by flow cytometry relative to control; format: functional
[17] = tested on: SK-BR-3; assay: Cell cycle arrest in human SKBR3 cells assessed as accumulation in G1 phase at 10 uM after 48 hrs using propidium iodide staining by flow cytometry relative to control; format: functional
[18] = tested on: SK-BR-3; assay: Cell cycle arrest in human SKBR3 cells assessed as accumulation in G1 phase at 5 uM after 48 hrs using propidium iodide staining by flow cytometry relative to control; format: functional
[19] = tested on: SK-BR-3; assay: Cell cycle arrest in human SKBR3 cells assessed as accumulation in sub-G1 phase at 5 uM after 48 hrs using propidium iodide staining by flow cytometry relative to control; format: functional
[20] = tested on: SK-BR-3; assay: Cell cycle arrest in human SKBR3 cells assessed as accumulation in G1 phase at 10 uM after 24 hrs using propidium iodide staining by flow cytometry relative to control; format: functional
[21] = (§1) Antiproliferative activity against human WI38 cells after 72 hrs by MTT assay; format: cell-based, WI-38; details: human, WI-38 cells; read-out: LC50
[22] = tested on: WI-38; assay: as §1; format: cell-based; details: Homo sapiens, WI-38, 72 h
[23] = Binding affinity to DNA (unknown origin) after 15 mins by DNase I footprinting assay
[24] = tested on: HeLa; assay: Cell cycle arrest in human HeLa cells assessed as accumulation in S phase after 24 hrs using propidium iodide staining by flow cytometry; format: functional, cell-based
[25] = tested on: SW-620; assay: Induction of apoptosis in human SW620 cells at 10 uM after 48 hrs using propidium iodide/Annexin-V staining by flow cytometry relative to control; format: functional
[26] = tested on: SW-620; assay: Cell cycle arrest in human SW620 cells assessed as accumulation in S phase at 10 uM after 48 hrs using propidium iodide staining by flow cytometry relative to control; format: functional
[27] = tested on: SW-620; assay: Cell cycle arrest in human SW620 cells assessed as accumulation in G1 phase at 10 uM after 48 hrs using propidium iodide staining by flow cytometry relative to control; format: functional
[28] = tested on: SW-620; assay: Cell cycle arrest in human SW620 cells assessed as accumulation in sub-G1 phase at 10 uM after 48 hrs using propidium iodide staining by flow cytometry relative to control; format: functional
[29] = tested on: SW-620; assay: Cell cycle arrest in human SW620 cells assessed as accumulation in S phase at 5 uM after 48 hrs using propidium iodide staining by flow cytometry relative to control; format: functional
[30] = tested on: SW-620; assay: Cell cycle arrest in human SW620 cells assessed as accumulation in sub-G1 phase at 5 uM after 48 hrs using propidium iodide staining by flow cytometry relative to control; format: functional
[31] = tested on: SW-620; assay: Cell cycle arrest in human SW620 cells assessed as accumulation in S phase at 10 uM after 24 hrs using propidium iodide staining by flow cytometry relative to control; format: functional
[32] = tested on: SW-620; assay: Cell cycle arrest in human SW620 cells assessed as accumulation in G1 phase at 10 uM after 24 hrs using propidium iodide staining by flow cytometry relative to control; format: functional
[33] = tested on: SW-620; assay: Cell cycle arrest in human SW620 cells assessed as accumulation in sub-G1 phase at 10 uM after 24 hrs using propidium iodide staining by flow cytometry relative to control; format: functional

SMILES | Activity [1] | Activity [2] | Activity [4] | Activity [5] | Activity [6] | Activity [7] | Activity [8] | Activity [9] | Activity [10] | Activity [11] | Activity [12] | Activity [13] | Activity [14] | Activity [15] | Activity [16] | Activity [17] | Activity [18] | Activity [19] | Activity [20] | CC50 at 72 h [21] | other results
Cl.Cl.c1cc2nc(-c3ccc(-c4nc5ccc(C6=NCCN6)cc5s4)cc3)sc2cc1C1=NCCN1 | inactive | Active | 14.5% | 18.9% | 34.2% | 15.5% | 42% | 9.9% | 18.4% | 53.9% | 40.9% | 5.8% | 35.2% | 20.3% | 42.3% | 41.3% | 53.6% | 27.5% | 50.9% | > 100 µM | Activity [3]: 5%; IC50 [22]: > 100 µM
Cl.Cl.c1cc(-c2nc3ccc(C4=NCCN4)cc3s2)cc(-c2nc3ccc(C4=NCCN4)cc3s2)c1 | Active | Active | 13.2% | 17.2% | 31.7% | 12.5% | 39.3% | 14.4% | 8.6% | 9.1% | 41.6% | 10.9% | 60.2% | 11.1% | 67.8% | 22.1% | 36.2% | 21.6% | 28.7% | 6.63 µM | Activity [23]: Active; Activity [24]: Dose-dependent effect; Activity [25]: 95%; Activity [26]: 69.6%; Activity [27]: 23.7%; Activity [28]: 13.6%; Activity [29]: 48.6%; Activity [30]: 24.8%; Activity [31]: 65.6%; Activity [32]: 29.9%; Activity [33]: 45.3%; IC50 [22]: 0.15 µM
